In general, IC50 refers to the midpoint of a concentration-inhibition curve.

Calls of active or inactive are those of the source. The rule behind the calls is not given here.

The values below come from PubChem BioAssay AID1645862 (Buhrlage Lab, Dana-Farber Cancer Institute and Novartis …, 2021).

The target in the assay is Ubiquitin carboxyl-terminal hydrolase 8 (Homo sapiens) (UniProt P40818). The experiment in a line: Ubiquitin-specific protease 8 inhibitors, concentration-effect, biochemical, validation of initial actives (AID 1645862).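 Note: potency reflects inhibition of USP8 cleavage of a ubiquitin rhodamine substrate.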 As to conditions: recombinant USP8 deubiquitinase activity assay.
Ubiquitin carboxyl-terminal hydrolase 8 (Homo sapiens), sequence (P40818 whole entry, looked up): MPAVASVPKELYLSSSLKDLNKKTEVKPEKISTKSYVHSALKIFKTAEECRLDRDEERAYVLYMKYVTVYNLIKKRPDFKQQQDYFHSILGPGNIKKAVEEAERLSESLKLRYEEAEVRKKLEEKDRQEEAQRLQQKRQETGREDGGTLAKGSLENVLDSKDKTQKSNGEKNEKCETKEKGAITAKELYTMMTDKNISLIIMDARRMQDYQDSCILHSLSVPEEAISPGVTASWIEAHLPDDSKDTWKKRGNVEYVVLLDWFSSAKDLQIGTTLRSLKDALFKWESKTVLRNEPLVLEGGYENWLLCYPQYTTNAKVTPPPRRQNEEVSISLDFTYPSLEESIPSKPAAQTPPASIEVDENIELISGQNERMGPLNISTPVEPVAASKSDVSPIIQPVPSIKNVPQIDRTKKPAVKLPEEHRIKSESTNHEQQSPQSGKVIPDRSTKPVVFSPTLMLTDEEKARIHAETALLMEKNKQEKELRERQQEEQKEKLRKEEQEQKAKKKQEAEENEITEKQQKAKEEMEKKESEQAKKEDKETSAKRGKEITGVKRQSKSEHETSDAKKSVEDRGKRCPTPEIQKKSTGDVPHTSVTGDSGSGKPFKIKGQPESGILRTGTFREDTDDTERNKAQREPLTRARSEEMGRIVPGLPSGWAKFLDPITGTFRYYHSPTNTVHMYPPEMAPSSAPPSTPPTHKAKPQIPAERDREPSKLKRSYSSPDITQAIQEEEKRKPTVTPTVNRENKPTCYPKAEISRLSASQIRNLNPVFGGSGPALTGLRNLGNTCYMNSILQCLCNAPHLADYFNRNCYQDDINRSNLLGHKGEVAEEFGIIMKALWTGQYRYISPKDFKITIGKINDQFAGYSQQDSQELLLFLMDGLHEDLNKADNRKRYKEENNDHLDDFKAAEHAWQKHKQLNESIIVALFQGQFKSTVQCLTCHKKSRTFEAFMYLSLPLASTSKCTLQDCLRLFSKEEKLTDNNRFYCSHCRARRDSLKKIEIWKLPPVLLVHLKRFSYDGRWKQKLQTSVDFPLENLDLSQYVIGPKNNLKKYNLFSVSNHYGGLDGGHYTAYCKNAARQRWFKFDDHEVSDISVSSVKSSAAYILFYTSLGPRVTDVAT
As for `COc1ccc(C(=O)Nc2ccccc2C(=O)NC(Cc2ccc(O)cc2)C(=O)NNC(=O)c2ccccc2Cl)cc1` (stereo not drawn), the IC50 was > 40 µM (inactive).
Regarding `O=S1(=O)CCN(CC2CCCO2)c2c(Oc3ccccc3)nc(F)c(Cl)c21` (stereo not drawn), the IC50 is > 40 µM (inactive).
For `Cc1ccccc1Cn1c(=O)n(CC2CCC(C(=O)NC3CCCC3)CC2)c(=O)c2ccccc21` (stereo not drawn), the IC50 was > 40 µM (inactive).
`O=C(Nc1cc(F)c2nc(N3CCOCC3)ccc2c1)C1CC1`: the IC50 is 33.6 µM.
Take `C[C@@H]1CO[C@@H]2C3=C(C(=O)C=CC3=O)[C@H]3OC(=O)[C@@H]4CCC5[C@@H]1CCC52C34` (stereo partly drawn): the IC50 is 25 µM.
Regarding `Cc1ccc(-c2n[nH]n3c2nc(=O)c2ccc(C(=O)NC4CCCCC4)cc23)cc1`, the IC50 was > 40 µM (inactive).
With `O=C(/C=C/c1ccc2c(c1)OCO2)Nc1nc2n(n1)C(c1ccccc1)CC(=O)N2` (stereo not drawn), the IC50 was > 40 µM (inactive).
In the case of `O=C(NCCc1cccnc1)c1ccn(-c2ccc3ccccn23)n1`, the IC50 was > 40 µM (inactive).
Then `COc1cc(NC(=O)Cn2c(=O)n(-c3ccc(CC(=O)NC4CCCC4)cc3)c(=O)c3ccccc32)cc(OC)c1`, with > 40 µM (inactive); and `Cc1ccc(Cn2cc(C(=O)Nc3ccccc3C(N)=O)ccc2=O)cc1`, with 7.34 µM; and `Cc1cc(NC(=O)CSc2ncc(-c3cccc([N+](=O)[O-])c3)n2-c2cccc(Cl)c2)no1`, with > 40 µM (inactive).
The result for `COc1ccc(/C=C/C(=O)Nc2ccc3nc(N4CCN(c5ncccn5)CC4)cc(C)c3c2)cc1` reads > 40 µM (inactive).
With `Cc1cc(C(=O)N2CCOCC2)c(C)n1-c1ccc(O)cc1`, the IC50 was 22.8 µM.
Take `COc1ccc(CNC(=O)C(C)n2nc(-c3ccco3)c(-c3cc(C)no3)cc2=O)cc1` (stereo not drawn): the IC50 is > 40 µM (inactive).
In the case of `O=C(/C=C/c1ccc(Br)cc1)Nc1cnc2ccccc2c1`, the IC50 was > 40 µM (inactive).
On to `COc1cc(NC(=O)Cn2nc(-c3ccc(F)cc3)ccc2=O)ccc1-n1cnnn1`, for which the IC50 is > 40 µM (inactive).
Take `COc1cc(Cl)c(NC(=O)C2Cc3ccccc3N2C(=O)c2ccccc2)c(OC)c1` (stereo not drawn): the IC50 was > 40 µM (inactive).
As to `COc1ccc(NC(=O)Cn2cc(C(=O)c3ccccc3)c(=O)c3cc(Cl)ccc32)cc1OC`, the IC50 was > 40 µM (inactive).
Take `COc1ccc(C2/C(=C(\O)c3ccccc3)C(=O)C(=O)N2c2cccc(C(F)(F)F)c2)cc1` (stereo not drawn): the IC50 is > 40 µM (inactive).
The result for `Cc1cc(NC(=O)CN2CCCN(S(=O)(=O)c3ccc(F)cc3)CC2)ccc1Br` reads > 40 µM (inactive).
On to `O=C1CC(c2ccccc2)n2ncnc2N1` (stereo not drawn), for which the IC50 was > 40 µM (inactive).
Consider `Cn1c(CCNC(=O)c2[nH]nc3c2CCc2ccccc2-3)nc2ccccc21`, for which the IC50 is > 40 µM (inactive).
Consider `CC[C@@H](C(=O)[C@@H](C)[C@@H](O)[C@H](C)CCc1ccc(C)c(O)c1C(=O)O)[C@@H]1O[C@](CC)([C@H]2CC[C@](O)(CC)[C@H](C)O2)C[C@@H]1C`, for which the IC50 was > 40 µM (inactive).
The result for `CCN(CC)C(=O)c1sc(NC(=O)c2cc(-c3ccccc3Cl)nc3ccccc23)c(C(N)=O)c1C` reads > 40 µM (inactive); that for `Cc1ccc(Nc2nc3c(S(=O)(=O)c4ccccc4)nnn3c3ccccc23)c(C)c1`, > 40 µM (inactive).
As for `CC(C)c1ccc(NC(=O)c2cc(-c3cccnc3)n[nH]2)cc1`, the IC50 is 28.6 µM.
As to `O=C(NCc1ccccc1)Nc1cccc2ccccc12`, the IC50 is > 40 µM (inactive).
Turning to `FC(F)(F)c1ccc(Nc2nnnc3ccccc23)cc1`, the IC50 is > 40 µM (inactive).
As for `O=C(Cn1cc(C(=O)c2ccccc2)c(=O)c2cc(F)ccc21)Nc1ccc2c(c1)OCO2`, the IC50 was > 40 µM (inactive).
Consider `CCc1ccc([C@@H]2c3c(C)nn(C)c3NC(=O)[C@H]2NC(=O)c2ccc(OC)c(OC)c2)cc1`, for which the IC50 is > 40 µM (inactive).
Consider `O=C(CCn1c(=O)c2ccccc2n(CC(=O)OCc2ccccc2)c1=O)NCc1ccc2c(c1)OCO2`, for which the IC50 was > 40 µM (inactive).
Regarding `Cc1ccc2[nH]c(=O)c(CN(CC3COCCO3)S(=O)(=O)c3ccc(F)cc3)cc2c1` (stereo not drawn), the IC50 is > 40 µM (inactive).
For the molecule `Cc1cccc(-n2ccnc(SCC(=O)Nc3ccc(Cl)cc3F)c2=O)c1`, the IC50 was > 40 µM (inactive).
Turning to `COc1ccc(N/C=C/c2onc(C)c2[N+](=O)[O-])c(OC)c1`, the IC50 is > 40 µM (inactive).
Then `COc1cc(Cl)c(NC(=O)c2cc(-c3ccccn3)n[nH]2)c(OC)c1`, with > 40 µM (inactive); and `CCN(c1ccc(NC(=O)CSc2nnc(-c3ccccc3)n2-c2ccc(OC)c(OC)c2)cc1)C(C)C`, with > 40 µM (inactive).
As for `Cc1ccc(NC(=O)Nc2ccc(C)n(CC(=O)Nc3ccc(C)c(C)c3)c2=O)cc1`, the IC50 was 39.2 µM.
For `COc1ccc(CNC(=O)CCCc2nnc3c(=O)n(-c4cc(C)cc(C)c4)ccn23)cc1`, the IC50 was > 40 µM (inactive).
Consider `COc1ccc2nc(N3CC(C(=O)Nc4ccc(C(N)=O)cc4)C3)sc2c1`, for which the IC50 is > 40 µM (inactive).
Then `O=C(Cn1c(=O)c2sccc2n(Cc2ccc([N+](=O)[O-])cc2)c1=O)NCCc1ccccc1`, with > 40 µM (inactive).
Take `CSc1ccc(C(=O)Nc2nc(-c3ccncc3)cs2)cc1`: the IC50 is > 40 µM (inactive).
With `CC(=O)Nc1cccc(-c2cnc3sc(NC4CCCCC4)nn23)c1`, the IC50 was > 40 µM (inactive).
With `CCOC(=O)c1cc2c(ccn2C)n1CC(=O)NC1CC1`, the IC50 was > 40 µM (inactive).
For `Cc1cccc(C)c1NC(=O)COc1ccccc1-c1nnc(-c2ccccc2)o1`, the IC50 was > 40 µM (inactive).
Then `Cc1ccc(-n2nnnc2-c2cnc3cc(Cl)ccc3c2N)cc1`, with > 40 µM (inactive).
For the molecule `O=C1CC(c2nc3ccccc3n2CCOc2ccc(Cl)cc2)CN1c1ccccc1` (stereo not drawn), the IC50 was > 40 µM (inactive).
Regarding `Cc1ccc2c(c1)N=C(c1ccc([N+](=O)[O-])cc1)CO2`, the IC50 was > 40 µM (inactive).
Regarding `Cc1ccccc1-c1nc(-c2cn(CC(=O)Nc3ccccc3)cn2)no1`, the IC50 was > 40 µM (inactive).
With `Cc1nc(SCC(=O)Nc2ccc(S(N)(=O)=O)cc2)c2cnn(-c3ccccc3)c2n1`, the IC50 is > 40 µM (inactive).
On to `O=C(Nc1ccc(-c2cn3ccsc3n2)cc1)c1ccc(Cl)c([N+](=O)[O-])c1`, for which the IC50 was 21.4 µM.
Then `COc1ccccc1CNC(=O)CCCCn1c(=O)c2ccccc2n(Cc2ccc(C)cc2)c1=O`, with > 40 µM (inactive); and `CCOc1ccccc1-c1cc(NC(=O)c2cc3ccc4cccnc4c3[nH]2)on1`, with > 40 µM (inactive); and `Cc1cc(C)c(NC(=O)Cn2c(=O)n(CCC(=O)NCc3ccc4c(c3)OCO4)c(=O)c3sccc32)c(C)c1`, with > 40 µM (inactive).
Take `O=C(c1ccco1)N1CCCC1c1nc(-c2ccccc2)n[nH]1` (stereo not drawn): the IC50 was > 40 µM (inactive).
For the molecule `Cc1nn(-c2nc3ccccc3o2)c2c1C(c1cccc([N+](=O)[O-])c1)CC(=O)N2` (stereo not drawn), the IC50 is > 40 µM (inactive).
In the case of `O=C(CCSc1ccc(Cl)cc1)c1cccs1`, the IC50 is > 40 µM (inactive).
In the case of `Cc1cccc(NC(=O)CNC(=O)c2ccc(-c3noc(C4CCCC4)n3)cc2)c1C`, the IC50 was > 40 µM (inactive).
For `COc1cccc(C2c3[nH]c4ccccc4c3C[C@@H]3C(=O)N(C4CC4)CC(=O)N23)c1` (stereo partly drawn), the IC50 was > 40 µM (inactive).
Turning to `NS(=O)(=O)c1cccc(NC(=O)/C=C/c2cn(-c3ccccc3)nc2-c2cccc([N+](=O)[O-])c2)c1`, the IC50 was > 40 µM (inactive).
`O=C(CCc1nnc2n(Cc3ccccc3)c(=O)c3ccccc3n12)NCc1ccc2c(c1)OCO2`: the IC50 is > 40 µM (inactive).
On to `CC(C)=CCC[C@H](C(=O)O)[C@@H]1CC[C@]2(C)C3=C(CC[C@@]12C)[C@@]1(C)CCC(=O)C(C)(C)C1CC3` (stereo partly drawn), for which the IC50 was > 40 µM (inactive).
With `Cc1nc2c(nnn2C[C@H]2CCCN2C(=O)c2ccc(F)cc2)c(=O)[nH]1`, the IC50 was > 40 µM (inactive).
As for `CC(CCc1ccccc1)NC(=O)Cn1c(=O)c2cccn2c2ccccc21` (stereo not drawn), the IC50 was > 40 µM (inactive).
Take `c1ccc2sc(-c3csc(-c4ccc5c(c4)OCCO5)n3)nc2c1`: the IC50 is > 40 µM (inactive).
The result for `CCOc1ccc(Oc2nc(CN3CCCC3)nc3sc(C)c(C)c23)cc1` reads > 40 µM (inactive).
Take `CCOC(=O)N1CCN(C(=O)c2ccc(NCc3ccc(F)cc3)c(S(=O)(=O)Nc3cccc(C(F)(F)F)c3)c2)CC1`: the IC50 was > 40 µM (inactive).
As for `O=C(COc1ccccc1-c1nnc(-c2ccccc2)o1)NCc1ccco1`, the IC50 was 37.9 µM.
With `COc1ccccc1CNC(=O)CCCCn1c(=O)c2ccccc2n(CC(=O)Nc2ccc(C)cc2C)c1=O`, the IC50 is > 40 µM (inactive).
`COc1cc2c(c(OCC(=O)Nc3ccc4c(c3)OCCO4)c1)C(=O)O[C@@H](C)CCCC(=O)CCCCC2`: the IC50 is > 40 µM (inactive).
Consider `CCOc1ccc(-n2c(SCC(=O)Nc3ccc(C)cc3)nnc2-c2c[nH]c3ccccc23)cc1`, for which the IC50 is 28.1 µM.
Then `O=C(Cn1c(COc2ccccc2)nc2ccccc21)Nc1ccc(N2CCOCC2)cc1`, with > 40 µM (inactive); and `O=C(COc1ccc(Cl)cc1)Nc1noc(-c2ccccc2)n1`, with 39.3 µM; and `Cc1ccc(C2c3[nH]c4ccccc4c3C[C@H]3C(=O)N(c4ccc(C(=O)NCCc5ccccc5)cc4)C(=O)N23)cc1` (stereo partly drawn), with > 40 µM (inactive).
Consider `COc1ccc(NC(=O)Cn2c(=O)n(CCCC(=O)NC3CCCC3)c(=O)c3cc(Cl)ccc32)c(OC)c1`, for which the IC50 was > 40 µM (inactive).
Turning to `Cc1cn2nnc(C(=O)Nc3ccc(OC(F)(F)F)cc3)c2c(=O)[nH]1`, the IC50 was > 40 µM (inactive).
Then `Cc1cc(NS(=O)(=O)c2ccc(NC(=O)COc3ccc(Cl)cc3)cc2)no1`, with > 40 µM (inactive).
Turning to `O=C(CN(CC(=O)NCc1ccccc1Cl)c1nc2ccccc2s1)NCc1ccccc1Cl`, the IC50 is > 40 µM (inactive).
Take `Cc1ccc(NC(=O)c2cc(-c3cccnc3)n[nH]2)cc1F`: the IC50 is > 40 µM (inactive).
